From patent US20220339257A1, “METHODS TO INCREASE THE SENSITIVITY AND REVERSING THE RESISTANCE TO DRUGS” (Biomarker Strategies, LLC, priority 2019, published 2022)
Counter-ions that a name gives are not always drawn.

Columns and labels:
Format in all cases: cell-based
[1] = system: Ca-922 cell line; assay: HoPI live cell staining; parameters: concentration or dose not given beside the values; details: single agent, 24 hours
Description: (§1) A double stain of Hoechst 33342 and propidium iodide allows for the determination of cell viability with high specificity and low background noise, as compared to trypan blue staining. Hoechst 33342 is a cell permeable blue fluorescent nuclear stain which will stain all cell types. Propidium iodide is a cell impermeable red fluorescent nuclear stain that will only bind to the nuclei of cells with compromised membranes (dead cells). The staining can be performed rapidly on live cell suspensions within 15 minutes. 25 uL of 4× Hoechst 33342 Solution (40 ug/mL) and 25 uL of 4×Propidium Iodide Solution are added to 50 uL of cell suspension. The suspension was gently mixed 10 times and 50 uL was immediately transferred to a microfluidic cell counting chip. A 365 nm LED was used to excite both Hoechst 33342 and propidium iodide. Images of the cells were captured using a 10× objective lens on an Olympus microscope using a Canon EOS 6D camera using an ISO of 800 and an exposure of 2 seconds; both JPEG and RAW images were saved for analysis. The blue channel was used to measure the total number of cells and the red channel was used to measure the number of dead cells. Cell counting was performed automatically by the Image Pro software (Media Cybernetics, Inc).
MTA and EM effects on apoptosis were measured by Hoechst-Propidium Iodide staining (HoPI). For the assay, cells were seeded in 6-well plates at 400K cells per well, in 2 mL of 10% FBS-containing media and incubated for 24 hours. At 24 hours, a 1 nM to […] range of MTA and/or 1 ng/mL to 1 mg/mL range of EM doses was added and incubated for 24 hours. After 24 hours incubation respective cells' media was collected, added the 1× HBSS wash from the plate in the respective tube. Adherent cells were detached by treating with Accutase for 6 minutes and collected in respective tubes. All samples were centrifuged for 5 minutes at 1200 RPM. The cell pellets were resuspended in PBS and centrifuged again for 5 minutes at 1200 RPM. Cell pellets were resuspended in 200 uL of PBS and mixed properly to get single cell suspension. 50 uL of cell suspension was added into separate tubes having 10 uL of a 2× HOPI solution (20 ug/mL Hoechst 33342 and 20 ug/mL propidium iodide solution) to get a final concentration of Hoechst 33342 and propidium iodide to […]. Make up the volume to 100 uL with 40 uL of PBS. Samples were mixed thoroughly for even cell staining and the microfluidsic chip wells were each filled with 10 uL of sample. Chips were then incubated in the dark for 20 minutes. A 365 nm LED was used to excite both Hoechst 33342 and propidium iodide as they were visualize under a microscope. Cell images were captured using a 10× objective lens on an Olympus microscope using a Canon EOS 6D camera with an ISO of 800 and an exposure of 2 seconds; both JPEG and RAW images were saved for analysis. The blue channel was used to measure the total number of cells and the red channel was used to measure the number of dead cells. For image analysis, a copy of the image was created and converted directly into an 8-bit gray scale image. A threshold was placed on the image to create a binary mask; the threshold level was 20 intensity units out of 255 intensity units. Next, a particle analysis algorithm was applied to the binary mask and a set of cellular regions (between 100 to 800 cellular regions per image) was created. The original image was then split into red, green and blue channels. The area, mean intensity, standard deviation of the mean intensity, minimum intensity, maximum intensity and perimeter were measured for each cellular region in the red channel and also in the blue channel. The green channel was discarded. To discern between live and dead cells, the maximum intensity in the red channel was used with a threshold of 100 intensity units. Double plots were created using the intensity of the blue channel (X-axis) and the intensity of the red channel (Y-axis). […]

[2] = system: panel of cell lines that included NSCLC, HNSCC, melanoma, and CRC; assay: WST8 in vitro sensitivity to MTAs with and without EM
Procedure: Day 1: cells were harvested cells from flask (4 mL accutase for T175 for 3-5 minutes), and spin down for 5 mins at 1200 rpm. The supernatant was poured off, and the pellet gently resuspended in 1 mL media. Countess counts were performed, and the cells were diluted in media (10% FBS). With multi-channel pipette, 2500 cells were seeded in 100 uL of media (10% FBS) in each well of 96 well plate. The cells were let to adhere and grow for 24 hours. Day 2: serial drug dilutions of MTAs+/−EMs at 5× of concentrations (as done above) were performed in media (10% FBS). 20 uL of media form each well of the 96 well plate (80 uL media left in wells) was removed, and 20 uL of appropriate 5× drug dilutions was added to each respective well (for a 1× conc). The cells were incubated with drug for 72 hours in 37C incubator. Day 5: 10 uL of WST-8 reagent was added to each well of the 96 well plate and mixed gently. the plates were incubated up to 4 hours at 37C in dark, and absorbance readings were taken at […] and 600 nm wavelengths at 1, 2, 3 and 4h, until control absorbance levels were 1.5-2.0).
We used a panel of cell lines that included NSCLC, HNSCC, melanoma, and CRC. These cell lines are a good model system harboring similar (epi)genetic changes found in patients' tumors. We used the WST8 assay to determine the in vitro sensitivity to various MTAs with and without EM1.

[3] = system: A-253 cells; assay: Western blot of protein biomarkers; details: spermidine (50 μM)+GM-CSF (50 ng/mL)
Procedure: (§2) MTA and EM effects on protein biomarker expression were measured by western blotting. For the assay cell lines (Ca9-22, PE/CA-PJ15, HTB-38, HPAF-II, CAL27, BICR-16, A-253, Calu-6, PC-9, H1838, RPMI-7951 and A7) were cultured and treated with doses of MTAs alone, EMs alone and in combination and then lysed for protein analysis. This method can readily be conducted under adherent or suspension conditions, manually or on automated instruments, such as SnapPath. A total of 0.3×10^6 cells per well were seeded in 6 well plates with 10% FBS-containing media and incubated for 24 hours. Cells were then treated with MTA and/or EM concentrations for 24 hours. For total protein extraction, briefly, each sample media was collected, and wells were washed with HMS, and the wash was combined with its respective media collection. Cells were then detached using Accutase solution and again collected in its respective sample media and another HMS well wash and collection was performed. All cell solutions were centrifuged, washed with ice-cold PBS, and centrifuged again. Cell pellets were lysed in 250 μL of ice-cold 1× lysis buffer with protease and phosphatase inhibitor cocktails and incubated for 10 minutes on ice. Lysates were clarified with a centrifugation (14,000 rpm) for 10 minutes at 4° C. Cell lysates were quantified using Bio-Rad DC Protein Assay (Bio-Rad Cat. #5000116).
(§3) For all western blots, an equal amount of protein (3-5 μg) was loaded into SDS-polyacrylamide gels (Mini-Protean TGX Precast Gel; Bio-Rad, e.g. 7.5%, Cat. #4561024; 10%, Cat. #4561035; 12%, Cat. #4561045; or 4-15%, Cat. #4561085). Proteins were separated at 215V for at least 30 minutes in 1× Tris/Glycine/SDS buffer (Bio-Rad Cat. #1610772) and transferred to PVDF membranes using a Trans-Blot Turbo (Bio-Rad Cat. #1704155) for 7 minutes in transfer buffer (Trans-Blot Turbo Transfer Kit, Bio-Rad Cat. #1704273). Blots were blocked at room temperature for 1 hour with 5% non-fat dry milk in tris-buffered saline with Tween 20 (TBST; 15 mM Tris-HCl, pH 7.5, 200mMNaCl and 0.1% Tween 20). Membranes were incubated with primary antibodies at 4° C. overnight and at room temperature for 1 hour the next day; all primary antibodies were diluted following manufacturer's specifications in TBST with either 5% BSA or 5% non-fat dry milk. Membranes were washed in TBST for 5 minutes, three times, and incubated with HRP-conjugated secondary antibodies diluted 1:5000 in TBST with 5% non-fat dry milk at room temperature for 1 hour (anti-rabbit IgG, Bio-Rad Cat. #1706515; or anti-mouse IgG, Bio-Rad Cat. #1706516). Membranes were then washed in TBST for 10 minutes, three times, and target proteins were identified using Clarity Western ECL Substrate (Bio-Rad Cat. #1705061) on autoradiography film (GenHunter Cat. #B581, Nashville, Tenn., USA). Other assay types, such as Luminex multiplexed immunoassays, ICC, IHC, flow cytometry, etc. can be used readily.

[4] = system: RPMI-1975; assay: HoPI live cell staining; details: single agent, 24 hours
Description: as §1
MTA and EM effects on apoptosis were measured by Hoechst-Propidium Iodide staining (HoPI). For the assay, cells were seeded in 6-well plates at 400K cells per well, in 2 mL of 10% FBS-containing media and incubated for 24 hours. At 24 hours, a 1 nM to […] range of MTA and/or 1 ng/mL to 1 mg/mL range of EM doses was added and incubated for 24 hours. After 24 hours incubation respective cells' media was collected, added the 1× HBSS wash from the plate in the respective tube. Adherent cells were detached by treating with Accutase for 6 minutes and collected in respective tubes. All samples were centrifuged for 5 minutes at 1200 RPM. […] The area, mean intensity, standard deviation of the mean intensity, minimum intensity, maximum intensity and perimeter were measured for each cellular region in the red channel and also in the blue channel. […]

[5] = system: H1975 (EGFR-double mutant line); assay: MTT cell survival assay; details: erlotinib 14 μM alone; H1975; 72 hours
Procedure: Cells (10^4 cells/well) were grown in 96-well plates and exposed for 72 hours to different doses of erlotinib, alone or in combination with EM2. The percentage of cell survival was determined using the 3-(4, 5-dimethylthiazol-2-yl)-2, 5-diphenyltetrazolium bromide (MTT). Single drug alone and vehicle were kept as controls.

[6] = system: PE/CA-PJ15 cells; assay: Western blot of protein biomarkers; details: spermidine (50 μM)+IL-12 (50 ng/mL)
Procedure: as §2, §3

C=CC(=O)Nc1cc(Nc2nccc(-c3cn(C)c4ccccc34)n2)c(OC)cc1N(C)CCN(C)C [osimertinib, Osimertinib, reference compound]
reduction in the number of live cells (HoPI) [1]: 41%

interleukin 6 [EM4]
response enhancement (in vitro sensitivity to various MTAs with and without EM, WST8) [2]: no, minimal and strong response enhancement

granulocyte-macrophage colony-stimulating factor [EM10]
Ki67 expression ([3]; compared to both MTA and EM alone): enhanced reduction in Ki67 expression
LC3II expression ([3]; compared to either alone): LC3II upregulation
p62 expression ([3]; compared to either alone): reduction in p62

transforming growth factor-beta-1 [EM3]
response enhancement (in vitro sensitivity to various MTAs with and without EM, WST8) [2]: no, minimal and strong response enhancement

COc1ncc(-c2ccc3nccc(-c4ccnnc4)c3c2)cc1NS(=O)(=O)c1ccc(F)cc1F [GSK458, Omipalisib, reference compound]
reduction in live cells (HoPI) [4]: 30%
reduction in the number of live cells (HoPI) [1]: 22%

C#Cc1cccc(Nc2ncnc3cc(OCCOC)c(OCCOC)cc23)c1 [erlotinib, Erlotinib hydrochloride, reference compound]
cell survival (MTT), effect of erlotinib alone [5]: absence of effect

B1: interleukin 12 (protein, UniProt P29459 23-219; P29460 23-328, looked up)
Interleukin-12 subunit alpha: RNLPVATPDPGMFPCLHHSQNLLRAVSNMLQKARQTLEFYPCTSEEIDHEDITKDKTSTVEACLPLELTKNESCLNSRETSFITNGSCLASRKTSFMMALCLSSIYEDLKMYQVEFKTMNAKLLMDPKRQIFLDQNMLAVIDELMQALNFNSETVPQKSSLEEPDFYKTKIKLCILLHAFRIRAVTIDRVMSYLNAS
Interleukin-12 subunit beta: IWELKKDVYVVELDWYPDAPGEMVVLTCDTPEEDGITWTLDQSSEVLGSGKTLTIQVKEFGDAGQYTCHKGGEVLSHSLLLLHKKEDGIWSTDILKDQKEPKNKTFLRCEAKNYSGRFTCWWLTTISTDLTFSVKSSRGSSDPQGVTCGAATLSAERVRGDNKEYEYSVECQEDSACPAAEESLPIEVMVDAVHKLKYENYTSSFFIRDIIKPDPPKNLQLKPLKNSRQVEVSWEYPDTWSTPHSYFSLTFCVQVQGKSKREKKDRVFTDKTSATVICRKNASISVRAQDRYYSSSWSEWASVPCS
notes: enhancer molecule, cytokine purchased from Sigma
p62 expression [6]: increased expression
LC3II over LC3I expression ([6]; 24 hours, compared to either alone): marked increase in LC3II over LC3I expression
